Source: paper PMC10817531, “Chlorinated Enyne Fatty Acid Amides from a Marine Cyanobacterium: Discovery of Taveuniamides L-M and Pharmacological Characterization of Taveuniamide F as a GPCR Antagonist with CNR1 Selectivity” (Marine Drugs, 2023)

What was measured:
Assay in all cases: PathHunter β-arrestin GpcrMAX assay
Format in all cases: cell-based
HRH1 = molecular target: T1, HRH1 (Homo sapiens, UniProt P35367)
T1 construct: purchased DiscoveRx (Eurofins) gpcrMAX PathHunter β-arrestin panel
Method: (§1) GpcrMAX panel biosensor assays were used to characterize taveuniamide F (4, 20 µM) (agonist and antagonist mode). The experiments were carried out by DiscoveRx Corporation (Fremont, CA, USA) as described before, using PathHunter β-arrestin enzyme fragment complementation (EFC) technology.

CXCR6 = molecular target: T2, CXCR6 (Homo sapiens, UniProt O00574)
T2 construct: purchased DiscoveRx (Eurofins) gpcrMAX PathHunter β-arrestin panel
Method: as §1

PTGIR = molecular target: T3, PTGIR (Homo sapiens, UniProt P43119)
T3 construct: purchased DiscoveRx (Eurofins) gpcrMAX PathHunter β-arrestin panel
Method: as §1

HTR1F = molecular target: T4, HTR1F (Homo sapiens, UniProt P30939)
T4 construct: purchased DiscoveRx (Eurofins) gpcrMAX PathHunter β-arrestin panel
Method: as §1

CX3CR1 = molecular target: T5, CX3CR1 (Homo sapiens, UniProt P49238)
T5 construct: purchased DiscoveRx (Eurofins) gpcrMAX PathHunter β-arrestin panel
Method: as §1

SCTR = molecular target: T6, SCTR (Homo sapiens, UniProt P47872)
T6 construct: purchased DiscoveRx (Eurofins) gpcrMAX PathHunter β-arrestin panel
Method: as §1

PTHR1 = molecular target: T7, PTHR1 (Homo sapiens, UniProt Q03431)
T7 construct: purchased DiscoveRx (Eurofins) gpcrMAX PathHunter β-arrestin panel
Method: as §1

CHRM2 = molecular target: T8, CHRM2 (Homo sapiens, UniProt P08172)
T8 construct: purchased DiscoveRx (Eurofins) gpcrMAX PathHunter β-arrestin panel
Method: as §1

CCR5 = molecular target: T9, CCR5 (Homo sapiens, UniProt P51681)
T9 construct: purchased DiscoveRx (Eurofins) gpcrMAX PathHunter β-arrestin panel
Method: as §1

NPY2R = molecular target: T10, NPY2R (Homo sapiens, UniProt P49146)
T10 construct: purchased DiscoveRx (Eurofins) gpcrMAX PathHunter β-arrestin panel
Method: as §1

BRS3 = BRS3 (Homo sapiens, UniProt P32247)
Method: as §1

FFAR1 = molecular target: T11, FFAR1 (Homo sapiens, UniProt O14842)
T11 construct: purchased DiscoveRx (Eurofins) gpcrMAX PathHunter β-arrestin panel
Method: as §1

AGTRL1 = AGTRL1 (Homo sapiens, UniProt P35414)
Method: as §1

GPR1 = molecular target: T12, GPR1 (Homo sapiens, UniProt P46091)
T12 construct: purchased DiscoveRx (Eurofins) gpcrMAX PathHunter β-arrestin panel
Method: as §1

AVPR2 = AVPR2 (Homo sapiens, UniProt P30518)
Method: as §1

GLP2R = molecular target: T13, GLP2R (Homo sapiens, UniProt O95838)
T13 construct: purchased DiscoveRx (Eurofins) gpcrMAX PathHunter β-arrestin panel
Method: as §1

GRPR = molecular target: T14, GRPR (Homo sapiens, UniProt P30550)
T14 construct: purchased DiscoveRx (Eurofins) gpcrMAX PathHunter β-arrestin panel
Method: as §1

OPRK1 = molecular target: T15, OPRK1 (Homo sapiens, UniProt P41145)
T15 construct: purchased DiscoveRx (Eurofins) gpcrMAX PathHunter β-arrestin panel
Method: as §1

P2RY2 = molecular target: T16, P2RY2 (Homo sapiens, UniProt P41231)
T16 construct: purchased DiscoveRx (Eurofins) gpcrMAX PathHunter β-arrestin panel
Method: as §1

GIPR = molecular target: T17, GIPR (Homo sapiens, UniProt P48546)
T17 construct: purchased DiscoveRx (Eurofins) gpcrMAX PathHunter β-arrestin panel
Method: as §1

DRD2L = molecular target: T18, DRD2L (Homo sapiens, UniProt P14416)
T18 construct: purchased DiscoveRx (Eurofins) gpcrMAX PathHunter β-arrestin panel
Method: as §1

TSHR(L) = molecular target: T19, TSHR(L) (Homo sapiens, UniProt P16473)
T19 construct: purchased DiscoveRx (Eurofins) gpcrMAX PathHunter β-arrestin panel
Method: as §1

ADRA2B = molecular target: T20, ADRA2B (Homo sapiens, UniProt P18089)
T20 construct: purchased DiscoveRx (Eurofins) gpcrMAX PathHunter β-arrestin panel
Method: as §1

CCR8 = molecular target: T21, CCR8 (Homo sapiens, UniProt P51685)
T21 construct: purchased DiscoveRx (Eurofins) gpcrMAX PathHunter β-arrestin panel
Method: as §1

CXCR2 = molecular target: T22, CXCR2 (Homo sapiens, UniProt P25025)
T22 construct: purchased DiscoveRx (Eurofins) gpcrMAX PathHunter β-arrestin panel
Method: as §1

EDG1 = molecular target: T23, EDG1 (Homo sapiens, UniProt P21453)
T23 construct: purchased DiscoveRx (Eurofins) gpcrMAX PathHunter β-arrestin panel
Method: as §1

GLP1R = molecular target: T24, GLP1R (Homo sapiens, UniProt P43220)
T24 construct: purchased DiscoveRx (Eurofins) gpcrMAX PathHunter β-arrestin panel
Method: as §1

CMKLR1 = molecular target: T25, CMKLR1 (Homo sapiens, UniProt Q99788)
T25 construct: purchased DiscoveRx (Eurofins) gpcrMAX PathHunter β-arrestin panel
Method: as §1

CCR1 = molecular target: T26, CCR1 (Homo sapiens, UniProt P32246)
T26 construct: purchased DiscoveRx (Eurofins) gpcrMAX PathHunter β-arrestin panel
Method: as §1

CXCR1 = molecular target: T27, CXCR1 (Homo sapiens, UniProt P25024)
T27 construct: purchased DiscoveRx (Eurofins) gpcrMAX PathHunter β-arrestin panel
Method: as §1

HTR1A = molecular target: T28, HTR1A (Homo sapiens, UniProt P08908)
T28 construct: purchased DiscoveRx (Eurofins) gpcrMAX PathHunter β-arrestin panel
Method: as §1

SSTR2 = molecular target: T29, SSTR2 (Homo sapiens, UniProt P30874)
T29 construct: purchased DiscoveRx (Eurofins) gpcrMAX PathHunter β-arrestin panel
Method: as §1

UTR2 = molecular target: T30, UTR2 (Homo sapiens, UniProt Q9UKP6)
T30 construct: purchased DiscoveRx (Eurofins) gpcrMAX PathHunter β-arrestin panel
Method: as §1

MC1R = molecular target: T31, MC1R (Homo sapiens, UniProt Q01726)
T31 construct: purchased DiscoveRx (Eurofins) gpcrMAX PathHunter β-arrestin panel
Method: as §1

DRD4 = molecular target: T32, DRD4 (Homo sapiens, UniProt P21917)
T32 construct: purchased DiscoveRx (Eurofins) gpcrMAX PathHunter β-arrestin panel
Method: as §1

HCRTR2 = molecular target: T33, HCRTR2 (Homo sapiens, UniProt O43614)
T33 construct: purchased DiscoveRx (Eurofins) gpcrMAX PathHunter β-arrestin panel
Method: as §1

ADRA2A = molecular target: T34, ADRA2A (Homo sapiens, UniProt P08913)
T34 construct: purchased DiscoveRx (Eurofins) gpcrMAX PathHunter β-arrestin panel
Method: as §1

OXTR = molecular target: T35, OXTR (Homo sapiens, UniProt P30559)
T35 construct: purchased DiscoveRx (Eurofins) gpcrMAX PathHunter β-arrestin panel
Method: as §1

F2RL3 = molecular target: T36, F2RL3 (Homo sapiens, UniProt Q96RI0)
T36 construct: purchased DiscoveRx (Eurofins) gpcrMAX PathHunter β-arrestin panel
Method: as §1

AVPR1B = AVPR1B (Homo sapiens, UniProt P47901)
Method: as §1

PTHR2 = molecular target: T37, PTHR2 (Homo sapiens, UniProt P49190)
T37 construct: purchased DiscoveRx (Eurofins) gpcrMAX PathHunter β-arrestin panel
Method: as §1

PROKR2 = molecular target: T38, PROKR2 (Homo sapiens, UniProt Q8NFJ6)
T38 construct: purchased DiscoveRx (Eurofins) gpcrMAX PathHunter β-arrestin panel
Method: as §1

F2R = molecular target: T39, F2R (Homo sapiens, UniProt P25116)
T39 construct: purchased DiscoveRx (Eurofins) gpcrMAX PathHunter β-arrestin panel
Method: as §1

T6 sequence (P47872 23-440): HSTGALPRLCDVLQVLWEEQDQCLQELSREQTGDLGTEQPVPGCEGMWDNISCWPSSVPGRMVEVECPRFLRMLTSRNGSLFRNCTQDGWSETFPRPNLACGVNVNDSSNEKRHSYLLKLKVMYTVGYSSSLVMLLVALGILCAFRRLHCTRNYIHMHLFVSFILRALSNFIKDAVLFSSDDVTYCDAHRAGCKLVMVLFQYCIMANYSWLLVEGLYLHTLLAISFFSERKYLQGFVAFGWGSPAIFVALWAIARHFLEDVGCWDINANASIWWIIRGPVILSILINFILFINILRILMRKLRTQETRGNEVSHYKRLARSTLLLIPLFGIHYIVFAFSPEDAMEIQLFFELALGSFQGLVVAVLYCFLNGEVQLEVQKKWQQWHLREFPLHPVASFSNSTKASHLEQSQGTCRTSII
T34 sequence (P08913 whole entry): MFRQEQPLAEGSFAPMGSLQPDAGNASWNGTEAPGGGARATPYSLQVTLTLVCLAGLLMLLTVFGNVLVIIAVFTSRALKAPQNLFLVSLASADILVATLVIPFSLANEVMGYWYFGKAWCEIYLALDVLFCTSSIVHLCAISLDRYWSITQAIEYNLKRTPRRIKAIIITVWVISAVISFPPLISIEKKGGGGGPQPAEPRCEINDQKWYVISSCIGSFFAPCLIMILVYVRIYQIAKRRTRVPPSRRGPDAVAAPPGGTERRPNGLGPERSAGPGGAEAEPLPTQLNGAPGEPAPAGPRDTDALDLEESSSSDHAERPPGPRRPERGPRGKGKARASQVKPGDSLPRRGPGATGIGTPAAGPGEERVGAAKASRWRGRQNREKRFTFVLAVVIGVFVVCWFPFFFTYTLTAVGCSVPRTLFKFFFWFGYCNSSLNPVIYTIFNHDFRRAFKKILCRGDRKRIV
T30 sequence (Q9UKP6 whole entry): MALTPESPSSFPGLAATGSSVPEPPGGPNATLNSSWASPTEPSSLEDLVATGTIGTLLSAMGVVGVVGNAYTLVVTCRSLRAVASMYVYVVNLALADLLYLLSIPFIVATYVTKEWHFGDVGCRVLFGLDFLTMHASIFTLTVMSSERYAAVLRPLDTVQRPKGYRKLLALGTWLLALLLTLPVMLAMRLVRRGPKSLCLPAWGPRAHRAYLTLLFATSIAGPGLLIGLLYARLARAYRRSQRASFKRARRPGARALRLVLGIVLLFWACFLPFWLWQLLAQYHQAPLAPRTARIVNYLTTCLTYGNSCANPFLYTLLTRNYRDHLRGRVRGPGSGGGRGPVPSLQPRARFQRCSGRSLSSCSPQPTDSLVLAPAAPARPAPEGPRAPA
T17 sequence (P48546 22-466): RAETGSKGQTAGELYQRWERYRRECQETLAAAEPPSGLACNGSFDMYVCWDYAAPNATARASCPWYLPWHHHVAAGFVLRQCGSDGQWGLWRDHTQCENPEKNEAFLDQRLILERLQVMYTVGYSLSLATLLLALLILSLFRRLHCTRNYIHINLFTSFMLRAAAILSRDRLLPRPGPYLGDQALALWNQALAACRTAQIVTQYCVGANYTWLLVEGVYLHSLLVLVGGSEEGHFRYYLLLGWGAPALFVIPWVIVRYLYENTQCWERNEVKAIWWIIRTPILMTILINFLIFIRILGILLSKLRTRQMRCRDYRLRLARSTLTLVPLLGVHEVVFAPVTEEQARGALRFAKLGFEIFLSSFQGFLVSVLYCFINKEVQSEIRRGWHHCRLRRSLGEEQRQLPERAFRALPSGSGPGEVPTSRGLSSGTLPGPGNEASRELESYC
T18 sequence (P14416 whole entry): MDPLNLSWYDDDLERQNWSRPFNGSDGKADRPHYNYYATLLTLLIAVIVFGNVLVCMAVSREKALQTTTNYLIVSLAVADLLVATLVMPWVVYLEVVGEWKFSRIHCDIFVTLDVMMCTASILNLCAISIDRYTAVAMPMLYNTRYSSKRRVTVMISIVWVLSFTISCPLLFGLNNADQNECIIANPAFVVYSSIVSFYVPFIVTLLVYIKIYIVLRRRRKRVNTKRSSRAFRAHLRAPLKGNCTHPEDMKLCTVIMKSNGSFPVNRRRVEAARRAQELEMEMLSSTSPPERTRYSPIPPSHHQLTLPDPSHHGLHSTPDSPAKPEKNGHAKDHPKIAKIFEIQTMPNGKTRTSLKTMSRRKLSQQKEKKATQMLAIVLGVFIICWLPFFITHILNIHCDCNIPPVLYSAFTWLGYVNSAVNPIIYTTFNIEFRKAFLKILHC
T35 sequence (P30559 whole entry): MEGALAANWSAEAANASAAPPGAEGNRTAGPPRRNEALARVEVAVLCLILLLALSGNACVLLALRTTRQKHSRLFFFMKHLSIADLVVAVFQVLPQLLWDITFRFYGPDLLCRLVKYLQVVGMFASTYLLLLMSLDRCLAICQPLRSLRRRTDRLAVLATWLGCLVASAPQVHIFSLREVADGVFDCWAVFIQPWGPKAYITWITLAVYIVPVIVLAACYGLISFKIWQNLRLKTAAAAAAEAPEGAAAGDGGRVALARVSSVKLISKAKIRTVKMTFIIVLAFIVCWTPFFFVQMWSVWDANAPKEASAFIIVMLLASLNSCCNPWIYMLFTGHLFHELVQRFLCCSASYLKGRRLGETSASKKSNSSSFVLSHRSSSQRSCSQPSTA
T25 sequence (Q99788 whole entry): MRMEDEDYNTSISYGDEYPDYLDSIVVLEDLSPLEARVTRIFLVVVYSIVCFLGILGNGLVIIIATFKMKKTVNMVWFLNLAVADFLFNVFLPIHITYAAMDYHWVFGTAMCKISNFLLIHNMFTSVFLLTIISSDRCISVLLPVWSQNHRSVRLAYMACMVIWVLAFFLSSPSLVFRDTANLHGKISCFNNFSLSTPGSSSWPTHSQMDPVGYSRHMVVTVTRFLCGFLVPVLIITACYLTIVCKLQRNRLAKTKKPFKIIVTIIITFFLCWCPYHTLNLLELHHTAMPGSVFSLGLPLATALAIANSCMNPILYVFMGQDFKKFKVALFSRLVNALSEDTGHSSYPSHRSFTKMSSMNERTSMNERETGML
T23 sequence (P21453 whole entry): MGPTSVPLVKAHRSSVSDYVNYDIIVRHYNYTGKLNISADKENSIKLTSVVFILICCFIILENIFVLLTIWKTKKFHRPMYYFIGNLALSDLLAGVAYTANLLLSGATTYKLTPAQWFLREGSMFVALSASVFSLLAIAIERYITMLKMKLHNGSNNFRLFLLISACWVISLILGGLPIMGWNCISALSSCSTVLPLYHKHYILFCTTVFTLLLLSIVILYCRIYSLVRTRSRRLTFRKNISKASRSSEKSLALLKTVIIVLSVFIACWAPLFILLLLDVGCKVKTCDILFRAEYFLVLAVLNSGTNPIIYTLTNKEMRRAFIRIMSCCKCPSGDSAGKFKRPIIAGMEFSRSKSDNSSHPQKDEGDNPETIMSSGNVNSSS
T38 sequence (Q8NFJ6 whole entry): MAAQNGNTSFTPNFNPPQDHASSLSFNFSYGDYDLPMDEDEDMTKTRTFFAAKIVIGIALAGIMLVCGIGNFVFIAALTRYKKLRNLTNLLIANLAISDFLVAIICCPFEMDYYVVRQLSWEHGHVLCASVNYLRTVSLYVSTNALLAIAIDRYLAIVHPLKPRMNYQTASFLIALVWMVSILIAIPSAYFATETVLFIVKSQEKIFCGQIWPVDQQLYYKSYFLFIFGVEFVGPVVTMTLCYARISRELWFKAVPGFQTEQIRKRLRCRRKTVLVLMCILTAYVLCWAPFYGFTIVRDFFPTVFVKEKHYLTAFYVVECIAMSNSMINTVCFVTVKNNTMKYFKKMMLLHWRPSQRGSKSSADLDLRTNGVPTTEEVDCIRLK
BRS3, sequence (P32247 whole entry): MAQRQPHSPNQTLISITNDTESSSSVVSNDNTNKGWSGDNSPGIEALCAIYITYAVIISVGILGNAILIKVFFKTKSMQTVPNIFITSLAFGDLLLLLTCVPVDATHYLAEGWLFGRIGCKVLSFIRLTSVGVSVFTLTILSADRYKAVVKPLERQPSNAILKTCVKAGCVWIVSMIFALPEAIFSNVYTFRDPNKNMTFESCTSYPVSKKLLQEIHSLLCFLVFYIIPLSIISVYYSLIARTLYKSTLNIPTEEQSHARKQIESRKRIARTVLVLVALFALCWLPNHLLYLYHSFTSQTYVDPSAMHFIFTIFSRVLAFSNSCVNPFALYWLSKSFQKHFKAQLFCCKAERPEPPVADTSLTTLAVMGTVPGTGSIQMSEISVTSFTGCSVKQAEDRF
T21 sequence (P51685 whole entry): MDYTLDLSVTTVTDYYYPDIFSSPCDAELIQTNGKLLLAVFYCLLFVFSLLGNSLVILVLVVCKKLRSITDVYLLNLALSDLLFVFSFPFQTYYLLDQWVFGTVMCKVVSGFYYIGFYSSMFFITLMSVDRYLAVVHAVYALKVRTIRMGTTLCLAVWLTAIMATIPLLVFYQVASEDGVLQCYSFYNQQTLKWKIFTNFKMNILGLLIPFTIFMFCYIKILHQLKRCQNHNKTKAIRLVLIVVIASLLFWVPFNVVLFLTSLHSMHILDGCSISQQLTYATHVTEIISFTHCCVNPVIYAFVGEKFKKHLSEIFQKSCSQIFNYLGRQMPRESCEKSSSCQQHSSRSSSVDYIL
T1 sequence (P35367 whole entry): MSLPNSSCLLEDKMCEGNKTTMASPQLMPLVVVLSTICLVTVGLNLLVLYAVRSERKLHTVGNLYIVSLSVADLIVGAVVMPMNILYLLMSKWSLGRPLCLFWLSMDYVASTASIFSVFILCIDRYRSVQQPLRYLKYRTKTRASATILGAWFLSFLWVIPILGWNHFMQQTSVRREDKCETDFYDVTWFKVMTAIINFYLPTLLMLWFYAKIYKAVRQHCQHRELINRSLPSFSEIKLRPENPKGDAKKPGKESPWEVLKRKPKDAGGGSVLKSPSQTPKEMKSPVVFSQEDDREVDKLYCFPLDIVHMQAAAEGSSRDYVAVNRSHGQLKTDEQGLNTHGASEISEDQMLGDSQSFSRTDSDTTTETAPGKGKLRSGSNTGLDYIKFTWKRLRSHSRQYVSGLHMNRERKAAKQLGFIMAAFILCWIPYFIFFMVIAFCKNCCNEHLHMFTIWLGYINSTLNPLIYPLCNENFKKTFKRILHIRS

inhibition at 20 µM (HRH1): 3%
inhibition at 20 µM (CXCR6): 33.1%
inhibition at 20 µM (PTGIR): 60.2%
inhibition at 20 µM (HTR1F): 41.7%
inhibition at 20 µM (CX3CR1): 35.6%
inhibition at 20 µM (SCTR): 16.9%
inhibition at 20 µM (PTHR1): 17.5%
inhibition at 20 µM (CHRM2): 36.7%
inhibition at 20 µM (CCR5): 14.7%
inhibition at 20 µM (NPY2R): 0.5%
inhibition at 20 µM (BRS3): 15.9%
inhibition at 20 µM (FFAR1): 42%
inhibition at 20 µM (AGTRL1): 6.8%
inhibition at 20 µM (GPR1): 18.7%
inhibition at 20 µM (AVPR2): 14.4%
inhibition at 20 µM (GLP2R): 20.4%
inhibition at 20 µM (GRPR): 6.2%
inhibition at 20 µM (OPRK1): 20.1%
inhibition at 20 µM (P2RY2): -1.1%
inhibition at 20 µM (GIPR): 23.3%
inhibition at 20 µM (DRD2L): 3.8%
inhibition at 20 µM (TSHR(L)): 7.6%
inhibition at 20 µM (ADRA2B): 10.7%
inhibition at 20 µM (CCR8): 43%
inhibition at 20 µM (CXCR2): 20.5%
inhibition at 20 µM (EDG1): 33.1%
inhibition at 20 µM (GLP1R): 59.9%
inhibition at 20 µM (CMKLR1): 21.4%
inhibition at 20 µM (CCR1): 65.7%
inhibition at 20 µM (CXCR1): 15.3%
inhibition at 20 µM (HTR1A): 15.2%
inhibition at 20 µM (SSTR2): -0.1%
inhibition at 20 µM (UTR2): 17.7%
inhibition at 20 µM (MC1R): 10.2%
inhibition at 20 µM (DRD4): 20.8%
inhibition at 20 µM (HCRTR2): 11.6%
inhibition at 20 µM (ADRA2A): 42.3%
inhibition at 20 µM (OXTR): 34.2%
inhibition at 20 µM (F2RL3): 59.2%
inhibition at 20 µM (AVPR1B): 57.5%
inhibition at 20 µM (PTHR2): 30.4%
inhibition at 20 µM (PROKR2): 30.5%
inhibition at 20 µM (F2R): 11.7%
SMILES: CC(=O)N[C@@H](CCCC#C/C=C/Cl)CCCCCCC(Cl)Cl [Compound 4, taveuniamide F]
